Test: Salt formation of monomeric salts analysed by spectroscopic methods (IR, 1H NMR) and observation on mixing
Assay type: physicochemical
Settings: solid sample, ATR
Experimental: The monomeric salt was analysed using infra-red (IR) spectroscopy (solid sample analysis using Avatar 360 infra-red spectrometer with Golden Gate diamond ATR attachment).
In an effort to further illustrate the relationship between acid/base pKa and the stability of the resulting polymer, a series of monomeric salts was prepared and analysed by spectroscopic methods.
Each of the monomeric salts were prepared by mixing the constituent acid/base starting materials in methanol at a concentration of 1.968 M. Following the addition of the acid/base starting materials, the mixture was stirred at room temperature for 24 h. The monomeric salt was then isolated by evaporation of the solvent.
^1H NMR spectroscopy was carried out on a CDCl3 solution of the monomeric salt (0.0827 M). Peaks associated with resonances for both CH2 groups present in the DMAEMA moiety were seen to shift downfield in the spectrum of this sample when compared to the reference spectrum of the DMAEMA starting material (CH2—CH2—NMe2 δ 4.25 shifted to δ 4.6 and CH2—CH2—NMe2 δ 2.6 shifted to δ 3.5). […] This is attributed to the change in the chemical environment of the CH2 resonances as a result of the complete protonation of the neighbouring NMe2 moiety.

salt formation by IR spectroscopy | Structure (SMILES)
incomplete salt formation | C=C(C)C(=O)NCCCN(C)C.CCCCCCCCCCCCCCCC(=O)O [Comparative Example A (monomeric salt)]
incomplete salt formation | C=C(C)C(=O)NCCCN(C)C.CCCCCC(=O)O [Comparative Example C]

Reference: patent US9045650B2, “Polymer with salt groups and antifouling coating composition comprising said polymer” (AKZO NOBEL COATINGS INTERNATIONAL B.V., priority 2008, dated 2015)
